Test results reported in patent US20240374585A1, “EPITHELIAL SODIUM CHANNEL (ENAC) INHIBITOR CONJUGATES AND METHODS FOR USE THEREOF” (Lung Therapeutics, Inc., priority 2021, published 2024).
Read-outs that look alike come from different tables or passages of the source.

Biological target: T1, ENaC (Homo sapiens, UniProt P37088+P51168+P51170)
T1 construct: Primary NHBE cells were isolated from bronchi of normal healthy patients; endogenous in cells; host or cells: primary normal human bronchial epithelial (NHBE) cells, differentiated at air-liquid interface
T1 sequence (P37088 1-669): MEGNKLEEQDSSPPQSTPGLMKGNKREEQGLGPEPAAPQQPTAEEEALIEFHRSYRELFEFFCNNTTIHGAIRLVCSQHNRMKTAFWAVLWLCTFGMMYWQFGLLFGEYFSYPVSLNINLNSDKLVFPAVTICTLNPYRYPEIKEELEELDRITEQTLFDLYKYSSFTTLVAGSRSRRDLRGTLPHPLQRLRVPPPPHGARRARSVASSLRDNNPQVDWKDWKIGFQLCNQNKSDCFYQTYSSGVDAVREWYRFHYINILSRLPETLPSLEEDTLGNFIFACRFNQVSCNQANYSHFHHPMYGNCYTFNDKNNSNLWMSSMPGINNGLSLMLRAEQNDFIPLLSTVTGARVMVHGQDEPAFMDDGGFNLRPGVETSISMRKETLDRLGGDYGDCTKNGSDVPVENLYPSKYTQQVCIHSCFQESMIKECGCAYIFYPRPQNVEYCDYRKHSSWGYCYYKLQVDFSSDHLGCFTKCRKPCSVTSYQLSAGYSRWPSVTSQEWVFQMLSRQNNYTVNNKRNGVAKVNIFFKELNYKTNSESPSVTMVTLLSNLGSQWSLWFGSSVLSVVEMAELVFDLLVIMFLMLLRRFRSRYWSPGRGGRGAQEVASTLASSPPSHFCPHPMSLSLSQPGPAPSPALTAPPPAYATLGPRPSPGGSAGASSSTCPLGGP
T1 sequence (P51168 1-640): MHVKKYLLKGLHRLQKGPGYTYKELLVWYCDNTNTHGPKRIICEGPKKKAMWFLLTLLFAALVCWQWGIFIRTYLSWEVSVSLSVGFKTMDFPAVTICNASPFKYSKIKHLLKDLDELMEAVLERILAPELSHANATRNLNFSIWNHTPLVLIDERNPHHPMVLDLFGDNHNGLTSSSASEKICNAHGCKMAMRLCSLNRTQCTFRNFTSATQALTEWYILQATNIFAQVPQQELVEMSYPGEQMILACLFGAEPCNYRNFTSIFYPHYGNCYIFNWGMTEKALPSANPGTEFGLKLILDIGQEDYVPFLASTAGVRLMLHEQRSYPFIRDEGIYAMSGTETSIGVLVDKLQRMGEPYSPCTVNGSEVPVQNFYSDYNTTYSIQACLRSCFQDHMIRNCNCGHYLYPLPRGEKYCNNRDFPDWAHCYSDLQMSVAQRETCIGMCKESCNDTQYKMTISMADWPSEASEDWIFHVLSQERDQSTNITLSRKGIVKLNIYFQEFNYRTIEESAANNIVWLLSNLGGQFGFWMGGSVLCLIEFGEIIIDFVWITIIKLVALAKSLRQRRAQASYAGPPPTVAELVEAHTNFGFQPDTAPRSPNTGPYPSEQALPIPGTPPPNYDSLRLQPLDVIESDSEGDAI
T1 sequence (P51170 1-649): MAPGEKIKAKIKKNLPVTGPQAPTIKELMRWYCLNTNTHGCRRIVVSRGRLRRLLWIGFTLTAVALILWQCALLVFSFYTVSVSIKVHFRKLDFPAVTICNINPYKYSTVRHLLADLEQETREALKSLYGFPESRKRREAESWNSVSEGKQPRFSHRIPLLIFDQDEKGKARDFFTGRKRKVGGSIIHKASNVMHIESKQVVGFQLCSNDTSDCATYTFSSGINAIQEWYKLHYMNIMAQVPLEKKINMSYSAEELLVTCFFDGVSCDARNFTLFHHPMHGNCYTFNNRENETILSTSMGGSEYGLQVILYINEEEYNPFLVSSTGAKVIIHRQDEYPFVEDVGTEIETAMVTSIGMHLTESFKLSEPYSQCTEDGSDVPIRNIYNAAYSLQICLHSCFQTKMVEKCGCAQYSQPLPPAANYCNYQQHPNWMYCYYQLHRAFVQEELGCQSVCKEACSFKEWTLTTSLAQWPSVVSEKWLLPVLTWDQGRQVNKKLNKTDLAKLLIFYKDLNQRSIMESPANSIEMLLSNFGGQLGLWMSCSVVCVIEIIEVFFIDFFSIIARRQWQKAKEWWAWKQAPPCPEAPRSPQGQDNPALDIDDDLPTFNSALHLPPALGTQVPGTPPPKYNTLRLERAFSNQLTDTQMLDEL
Experiment: ENaC inhibition in NHBE cell monolayers, Ussing epithelial voltage clamp (short circuit current)
Assay type: cell-based
Procedure: The objective of this study was to measure the ability of the illustrative conjugates to modulate ion transport function of ENAC in normal human bronchial epithelial (NHBE) cell monolayers. Sodium transport function of ENAC expressed in NHBE monolayers was evaluated using an Ussing epithelial voltage clamp apparatus. See, Hirsh et al., J. Pharmacol. Exp. Ther. 2008; 325:77-88, hereby incorporated by reference in its entirety.
Primary NHBE cells were isolated from bronchi of normal healthy patients, expanded in Lonza media (BEGM™ BulletKit™), and plated on Snapwell™ filters to form an epithelium. Cells on Snapwell™ inserts were grown for at least 21 days in Vertex Differentiation media and exposed to an air-liquid interface to promote differentiation. At least one day before the assay, mucous overlaying the apical surface was removed from the inserts by incubating the apical surface for about 30 minutes with ≥200 μL of differentiation media followed by aspiration of the mucous film and media.
The NHBE cell monolayers grown on Snapwell™ filter inserts were transferred to Physiologic Instruments Ussing recording chambers (Physiologic Instruments, Inc., San Diego, CA) and superfused with HB-PS. One or more 6-channel or 8-channel Physiologic Instruments VCC MC6 or VCC MC8 epithelial voltage clamps were used in combination to record short circuit current (ISC) from up to 24 inserts simultaneously. Air was used to operate the bubble lifts to rapidly circulate solutions in each Ussing chamber half and to aerate the monolayers.
Inserts were voltage clamped at 0 m V to record the ISC. Bumetanide (20 μM) was added to the basolateral side of all inserts. Test conjugates prepared as DMSO (Sigma-Aldrich) stocks were added cumulatively and sequentially to the apical Ussing chamber halves with at least 3 minutes between each addition.
Time and volume matched additions of DMSO to the basolateral side of the test conjugate treated inserts and both sides of the vehicle treated inserts was made to maintain osmotic balance across the epithelia. Transepithelial resistance was monitored with small voltage steps. The assay was performed at 35±2° C.
ENaC current at each test conjugate concentration was calculated as the peak current change produced by each test conjugate treated insert minus the mean current change produced by the corresponding DMSO additions to time-matched vehicle controls inserts. Cumulative difference data was fit to a Hill equation of the form: […]
Where IEnaC is the ISC peak difference current measured at each test conjugate concentration [Test].

CC(=O)N[C@@H](Cc1cn(CCCCNC(N)=NC(=O)c2nc(Cl)c(N)nc2N)nn1)C(=O)NCCCCCC(=O)N[C@H](C(=O)N[C@@H](CO)C(=O)N[C@@H](CCCCN)C(=O)N[C@@H](CCCNC(=N)N)C(=O)N[C@@H](CCCNC(=N)N)C(N)=O)C(C)C [Conjugate 9, Ac-(AmilCC2-Pgy)-Ahx-VSKRR-NH2] was tested. Which IC50 (NHBE cell monolayers, Ussing chamber, apical addition, 35±2° C., read-out: IC50 for the ENaC inhibition) did it give?
Its IC50 is 100 nM.

With CC(=O)N[C@@H](Cc1cn(CCCCNC(N)=NC(=O)c2nc(Cl)c(N)nc2N)nn1)C(=O)NCCCCCC(=O)N[C@@H](C)C(=O)N[C@@H](CO)C(=O)N[C@@H](Cc1c[nH]cn1)C(=O)N[C@@H](CC(C)C)C(=O)N[C@@H](CCCNC(=N)N)C(=O)N[C@@H](CCCCN)C(=O)N[C@@H](CC(C)C)C(=O)N[C@@H](CCCNC(=N)N)C(=O)N[C@@H](CCCCN)C(=O)N[C@@H](CCCNC(=N)N)C(=O)N[C@@H](CC(C)C)C(=O)N[C@@H](CC(C)C)C(N)=O [Conjugate 8] as the compound, how does the IC50 read?
The IC50 was 60 nM.
